In publication PMC6893898, “Receptor Interaction Profiles of 4-Alkoxy-Substituted 2,5-Dimethoxyphenethylamines and Related Amphetamines” (Frontiers in Pharmacology, 2019):

target: T1, human 5-HT2B receptor (Homo sapiens, UniProt P41595); test: Activity at the 5-HT2B receptor (FLIPR calcium, HEK 293 cells); format: cell-based; conditions: not given
T1 construct: expressed in transfected cells; host or cells: HEK 293
Method: Activity at the 5-HT2B receptor was examined as previously described ([Luethi et al., 2018]). In summary, HEK 293 cells expressing the human 5-HT2B receptor were seeded at a density of 50,000 cells per well in 96-well poly-D-lysine-coated plates overnight at 37°C. The cells were then incubated in growth medium consisting of high glucose Dulbecco’s modified Eagle’s medium (DMEM) (Invitrogen, Zug, Switzerland), 10% fetal calf serum (non-dialyzed, heat-inactivated), 250 mg/l Geneticin and 10 ml/l PenStrep (Gibco), overnight at 37°C. After removal of the growth medium via snap inversion, calcium indicator Fluo-4-solution (100 µl) was injected into each well (Molecular Probes, Eugene, OR, USA) and incubated for 45 min at 31°C. Afterwards, the Fluo-4 solution was removed (snap inversion) and a further 100 µl of the Fluo-4 solution was added and incubated (45 min, 31°C). Thereafter, using the EMBLA cell washer, the cells were washed just before testing with HBSS and 20 mM HEPES and exposed to 100 µl of assay buffer. The well plate was positioned in the FLIPR and while online, 25 µl of the test compounds diluted in assay buffer were added. Concentration-response curves were calculated using nonlinear regression, and EC50 values were obtained. The maximal activity at the receptors was calculated relative to 5-HT activity which was defined as 100%.

T1 sequence (P41595 whole entry): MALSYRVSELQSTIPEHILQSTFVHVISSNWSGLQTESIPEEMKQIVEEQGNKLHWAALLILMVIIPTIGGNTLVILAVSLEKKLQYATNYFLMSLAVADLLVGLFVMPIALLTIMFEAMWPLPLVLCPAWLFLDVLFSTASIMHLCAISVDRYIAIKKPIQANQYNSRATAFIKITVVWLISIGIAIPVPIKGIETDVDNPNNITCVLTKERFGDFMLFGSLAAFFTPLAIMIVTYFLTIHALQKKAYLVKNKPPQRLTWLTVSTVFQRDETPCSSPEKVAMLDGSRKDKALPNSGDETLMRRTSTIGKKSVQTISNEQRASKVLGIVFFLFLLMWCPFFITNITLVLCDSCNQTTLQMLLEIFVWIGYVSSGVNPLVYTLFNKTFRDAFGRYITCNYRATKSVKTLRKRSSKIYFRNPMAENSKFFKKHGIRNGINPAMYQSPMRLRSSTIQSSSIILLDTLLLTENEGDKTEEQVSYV

In order of rising EC50:
1. C=C(C)COc1cc(OC)c(CC(C)N)cc1OC (stereo not drawn) [MMALM, 2,5-dimethoxy-4-methallyloxyamphetamine]  0.029 ± 0.013 µM
2. COc1cc(OCC(F)F)c(OC)cc1CC(C)N (stereo not drawn) [MDFEM, 4-(2,2-difluoroethoxy)-2,5-dimethoxyamphetamine]  0.13 ± 0.08 µM
3. COc1cc(OC(C)C)c(OC)cc1CC(C)N (stereo not drawn) [MIPM, 2,5-dimethoxy-4-isopropoxyamphetamine]  0.18 ± 0.12 µM
4. COc1cc(OCC(F)(F)F)c(OC)cc1CC(C)N (stereo not drawn) [MTFEM, 2,5-dimethoxy-4-(2,2,2-trifluoroethoxy)amphetamine]  0.2 ± 0.03 µM
5. COc1cc(OCC(F)(F)F)c(OC)cc1CCN [2C-O-22, 2,5-dimethoxy-4-(2,2,2-trifluoroethoxy)phenethylamine]  0.25 ± 0.01 µM
6. COc1cc(OCc2ccccc2)c(OC)cc1CCN [2C-O-27, 4-benzyloxy-2,5-dimethoxyphenethylamine]  0.48 ± 0.19 µM

In order of falling “Higher 5-HT2B activation potency compared to TMA-2 (19)” value:
1. C=C(C)COc1cc(OC)c(CC(C)N)cc1OC (stereo not drawn) [MMALM, 2,5-dimethoxy-4-methallyloxyamphetamine]  9 fold
2. COc1cc(OC(C)C)c(OC)cc1CC(C)N (stereo not drawn) [MIPM, 2,5-dimethoxy-4-isopropoxyamphetamine]  2 fold

For `COc1cc(OCC(F)(F)F)c(OC)cc1CCN` [2C-O-22, 2,5-dimethoxy-4-(2,2,2-trifluoroethoxy)phenethylamine], the “Increase in 5-HT2B activation potency compared to 2C-O-21 (9)” value was 4 fold.

same assay, conditions: HEK293, relative to 5-HT = 100%; read-out: h5-HT2B Activation efficacy max ± SD

Compared with `C=C(C)COc1cc(OC)c(CC(C)N)cc1OC` (stereo not drawn) [MMALM, 2,5-dimethoxy-4-methallyloxyamphetamine], `COc1cc(OCC(F)(F)F)c(OC)cc1CC(C)N` (stereo not drawn) [MTFEM, 2,5-dimethoxy-4-(2,2,2-trifluoroethoxy)amphetamine] is lower in Emax: 85 to 101% for the first, 5% for the second.

`COc1cc(OCC(F)F)c(OC)cc1CC(C)N` (stereo not drawn) [MDFEM, 4-(2,2-difluoroethoxy)-2,5-dimethoxyamphetamine] and `COc1cc(OC(C)C)c(OC)cc1CC(C)N` (stereo not drawn) [MIPM, 2,5-dimethoxy-4-isopropoxyamphetamine] are within error of each other in Emax: 21 ± 8% for the first, 20 ± 14% for the second.

`COc1cc(OCC(F)(F)F)c(OC)cc1CCN` [2C-O-22, 2,5-dimethoxy-4-(2,2,2-trifluoroethoxy)phenethylamine] and `COc1cc(OCc2ccccc2)c(OC)cc1CCN` [2C-O-27, 4-benzyloxy-2,5-dimethoxyphenethylamine] are within error of each other in Emax: 28 ± 20% for the first, 39 ± 16% for the second.

target: T2, human TAAR1 (Homo sapiens, UniProt Q96RJ0); test: Activity at the human TAAR1 (cAMP, HEK 293 cells); format: cell-based; conditions: human TAAR1 EC50 ± SD
T2 construct: expressed in transfected cells; host or cells: HEK 293 (recombinant, Geneticin/hygromycin B selection)
T2 sequence (Q96RJ0 1-339): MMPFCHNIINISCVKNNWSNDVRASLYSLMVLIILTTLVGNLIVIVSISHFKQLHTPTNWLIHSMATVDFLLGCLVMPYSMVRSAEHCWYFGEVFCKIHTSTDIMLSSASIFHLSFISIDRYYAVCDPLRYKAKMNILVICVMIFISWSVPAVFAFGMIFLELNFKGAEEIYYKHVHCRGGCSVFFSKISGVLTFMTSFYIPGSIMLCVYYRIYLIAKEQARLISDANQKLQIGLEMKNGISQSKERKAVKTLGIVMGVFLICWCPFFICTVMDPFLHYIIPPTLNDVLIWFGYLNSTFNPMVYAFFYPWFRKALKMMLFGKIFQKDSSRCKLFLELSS
Method: Activity at the human TAAR1 was examined as previously described in full detail ([Luethi et al., 2018]). In summary, human TAAR1 expressing recombinant HEK 293 cells were grown in 250 ml falcon culture flasks containing 30 ml of high glucose DMEM (10% heat inactivated fetal calf serum, 500 µg/ml Geneticin [Gibco, Zug, Switzerland] and 500 µg/ml hygromycin B) at 37°C and 5% CO2/95% air. At 80-90% confluency, the cells were collected. The medium was aspirated, cells were washed with phosphate-buffered saline (PBS) and then trypsinized for 5 min at 37°C with 5 ml of trypsin/EDTA solution. Next, 45 ml of medium was added and the mixture was transferred into a falcon tube. After centrifugation (900 rpm, 3 min, RT), the supernatant was aspirated and the remaining cell pellet was resuspended in fresh medium to […]. Using a multipipette, 100 µl of cells were transferred (80,000 cells/well) into a 96-well plate (BIOCOAT 6640, Becton Dickinson, Allschwil, Switzerland) and incubated for 20 h at 37°C. For the cAMP assay, the medium was aspirated replaced with 50 µL PBS without Ca^2+ and Mg^2+ ions. The PBS was then extracted using snap inversion and the plate was softly tapped against tissue; 90 µL of Krebs-Ringer Bicarbonate buffer (Sigma-Aldrich) containing 1 mM IBMX was added and incubated for 60 min at 37°C and 5% CO2/95% air. A concentration range between 300 pM and 30 µM of test compounds was examined in duplicate. A standard curve with a range of cAMP concentrations (0.13 nM to 10 µM) was created per 96-well plate. Each experiment was accompanied with a reference plate that included three compounds; RO5256390, β-phenylethylamine, and p-tyramine. The cells were exposed to either 30 µl of compound solution, 30 µl of β-phenylethylamine (as maximal response), or a basal control in PBS (containing 1 mM IBMX) for 40 min at 37°C. Next, under forceful shaking using black lids, the cells were exposed to 50 µl of 3x detection mix solution (composed of Ru-cAMP Alexa700 anti-cAMP antibody and lysis buffer) for 120 min at room temperature in order to lyse the cells. Using the NanoScan reader (Innovative Optische Messtechnik, Berlin, Germany; 456 nm excitation wavelength; 630 and 700 nm emission wavelengths), the fluorescence was examined and the fluorescence resonance energy transfer (FRET) signal was determined using the following equation; FRET (700 nm) − P × FRET (630 nm), where P = Ru (700 nm)/Ru (630 nm). Receptor binding affinity at the human TAAR1 was not determined since unfortunately, there are no suitable radioligands available for this receptor.
Functional activity of the derivatives was only examined at the human TAAR1 and not at the mouse and rat TAAR1, because functional assays are not set up.

`C=C(C)COc1cc(OC)c(CC(C)N)cc1OC` (stereo not drawn) [MMALM, 2,5-dimethoxy-4-methallyloxyamphetamine] and `COc1cc(OCC(F)(F)F)c(OC)cc1CC(C)N` (stereo not drawn) [MTFEM, 2,5-dimethoxy-4-(2,2,2-trifluoroethoxy)amphetamine] cannot be ordered by EC50: greater than 30 µM for the first, greater than 30 µM for the second.

`COc1cc(OCC(F)F)c(OC)cc1CC(C)N` (stereo not drawn) [MDFEM, 4-(2,2-difluoroethoxy)-2,5-dimethoxyamphetamine] and `COc1cc(OC(C)C)c(OC)cc1CC(C)N` (stereo not drawn) [MIPM, 2,5-dimethoxy-4-isopropoxyamphetamine] cannot be ordered by EC50: greater than 30 µM for the first, greater than 30 µM for the second.

First: COc1cc(OCC(F)(F)F)c(OC)cc1CCN [2C-O-22, 2,5-dimethoxy-4-(2,2,2-trifluoroethoxy)phenethylamine]
Second: COc1cc(OCc2ccccc2)c(OC)cc1CCN [2C-O-27, 4-benzyloxy-2,5-dimethoxyphenethylamine]
The EC50 of the first is lower: 3.6 ± 2.4 µM for the first, greater than 30 µM for the second.

target: T3, 5-HT1A receptor (Homo sapiens, UniProt P08908); test: Radioligand binding, 5-HT1A receptor ([3H]8-OH-DPAT); conditions: not given
T3 construct: expressed in transfected cells; host or cells: HEK 293 (membrane preparation)
T3 sequence (P08908 1-422): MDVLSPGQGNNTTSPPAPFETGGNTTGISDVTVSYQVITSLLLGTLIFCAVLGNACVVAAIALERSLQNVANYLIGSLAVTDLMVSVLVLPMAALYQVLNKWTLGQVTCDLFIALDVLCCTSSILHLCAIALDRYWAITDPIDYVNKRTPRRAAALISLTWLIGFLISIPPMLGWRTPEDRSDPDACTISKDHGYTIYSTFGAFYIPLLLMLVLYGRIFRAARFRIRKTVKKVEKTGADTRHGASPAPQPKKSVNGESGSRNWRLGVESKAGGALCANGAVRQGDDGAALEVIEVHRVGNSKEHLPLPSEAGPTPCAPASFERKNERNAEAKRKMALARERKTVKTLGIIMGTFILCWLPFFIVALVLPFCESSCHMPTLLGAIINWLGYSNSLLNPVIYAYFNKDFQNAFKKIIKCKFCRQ

`COc1cc(OCC(F)F)c(OC)cc1CC(C)N` (stereo not drawn) [MDFEM, 4-(2,2-difluoroethoxy)-2,5-dimethoxyamphetamine] and `COc1cc(OCC(F)(F)F)c(OC)cc1CC(C)N` (stereo not drawn) [MTFEM, 2,5-dimethoxy-4-(2,2,2-trifluoroethoxy)amphetamine] cannot be ordered by Ki: greater than 5.6 µM for the first, greater than 5.6 µM for the second.

`COc1cc(OCC(F)(F)F)c(OC)cc1CCN` [2C-O-22, 2,5-dimethoxy-4-(2,2,2-trifluoroethoxy)phenethylamine] and `COc1cc(OCc2ccccc2)c(OC)cc1CCN` [2C-O-27, 4-benzyloxy-2,5-dimethoxyphenethylamine] are within 1.5-fold of each other in Ki: 3.3 ± 0.2 µM for the first, 2.7 ± 0.1 µM for the second.

Work on `COc1cc(OC(C)C)c(OC)cc1CC(C)N` (stereo not drawn) [MIPM, 2,5-dimethoxy-4-isopropoxyamphetamine] yielded a Ki greater than 5.6 µM.

target: T4, rat TAAR1 (Rattus norvegicus, UniProt Q923Y9); test: Radioligand binding, rat TAAR1 ([3H]RO5166017); conditions: not given
T4 construct: expressed in transfected cells; host or cells: HEK 293 (membrane preparation)
T4 sequence (Q923Y9 whole entry): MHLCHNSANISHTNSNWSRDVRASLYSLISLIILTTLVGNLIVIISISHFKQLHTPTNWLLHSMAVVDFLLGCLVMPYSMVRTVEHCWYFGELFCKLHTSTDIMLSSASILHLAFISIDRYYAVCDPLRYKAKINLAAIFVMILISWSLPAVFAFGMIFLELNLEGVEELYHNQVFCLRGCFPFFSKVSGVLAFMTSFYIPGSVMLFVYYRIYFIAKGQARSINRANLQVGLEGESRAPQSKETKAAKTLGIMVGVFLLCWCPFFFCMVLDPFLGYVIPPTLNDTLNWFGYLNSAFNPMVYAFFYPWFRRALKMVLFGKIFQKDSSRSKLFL

For `C=C(C)COc1cc(OC)c(CC(C)N)cc1OC` (stereo not drawn) [MMALM, 2,5-dimethoxy-4-methallyloxyamphetamine], the “Higher rat TAAR1 affinity than TMA-2 (19) and MIPM (18)” value was 5 fold.

In order of rising Ki:
1. COc1cc(OCc2ccccc2)c(OC)cc1CCN [2C-O-27, 4-benzyloxy-2,5-dimethoxyphenethylamine]  0.021 ± 0.003 µM
2. COc1cc(OCC(F)(F)F)c(OC)cc1CCN [2C-O-22, 2,5-dimethoxy-4-(2,2,2-trifluoroethoxy)phenethylamine]  0.24 ± 0.06 µM
3. C=C(C)COc1cc(OC)c(CC(C)N)cc1OC (stereo not drawn) [MMALM, 2,5-dimethoxy-4-methallyloxyamphetamine]  0.63 ± 0.15 µM
4. COc1cc(OCC(F)F)c(OC)cc1CC(C)N (stereo not drawn) [MDFEM, 4-(2,2-difluoroethoxy)-2,5-dimethoxyamphetamine]  1.2 ± 0.2 µM
5. COc1cc(OCC(F)(F)F)c(OC)cc1CC(C)N (stereo not drawn) [MTFEM, 2,5-dimethoxy-4-(2,2,2-trifluoroethoxy)amphetamine]  1.3 ± 0.1 µM
6. COc1cc(OC(C)C)c(OC)cc1CC(C)N (stereo not drawn) [MIPM, 2,5-dimethoxy-4-isopropoxyamphetamine]  2.9 ± 0.7 µM
